According to patent US8618099B2, “Pyrazolyl-pyrimidine derivatives and their use as potassium channel modulators” (Ataxion, Inc., priority 2008, dated 2013):

What was measured:
[1] = molecular target: T1, small-conductance Ca2+-activated K+ channels (SK channels, subtype 3), hSK3 (Homo sapiens, UniProt Q9UGI6); test: Whole-cell patch-clamp recording of ionic current through hSK3 channels expressed in HEK293 cells; format: cell-based; settings: HEK293 cells expressing hSK3 channels
T1 construct: expressed in transfected cells; host or cells: HEK293
Description: The compounds of the invention may be tested for their usefulness as potassium channel modulating agents e.g. such as described in WO 2006/100212.
The ionic current through small-conductance Ca^2+-activated K^+ channels (SK channels, subtype 3) is recorded using the whole-cell configuration of the patch-clamp technique in a classic patch-clamp set-up using HEK293 tissue culture cells expressing hSK3 channels as described in e.g. WO 2006/100212
The SC100 value determined is defined as the Stimulating Concentration required for increasing the baseline current by 100%. The SC100 value determined for Compound 4.1 of the invention was 0.022±0.013 μM, which is an indication of its SK3 activating properties.

SC100 (Stimulating Concentration required for increasing the baseline current by 100%) [1]: 0.022 ± 0.013 µM | melting point: 186 to 187 °C
Compound: Cc1cc(C)n(-c2nc(Nc3ccc(Cl)cc3)cc(N3CCOCC3)n2)n1 [Compound 4.1, (4-Chloro-phenyl)-[2-(3,5-dimethyl-pyrazol-1-yl)-6-morpholin-4-yl-pyrimidin-4-yl]-amine]
